The source made the active and inactive calls. No cut-off for these calls is given here.
Tests used:
BV-2 [1] = assay: Inhibition of LPS-induced intracellular ROS production in mouse BV2 cells assessed as mean fluorescence intensity at 20 uM incubated with LPS for 18 hrs followed by compound addition measured after 36 hrs by DCFH-DA probe based flow cytometry (reference value: 493530); format: functional
PC-12 [2] = assay: Neuroprotective activity against H2O2-induced apoptosis in rat PC12 cells assessed as viable cells at 5 uM after 24 hrs by Annexin V-FITC/propidium iodide staining-based flow cytometry (reference value: 68.4%); format: functional; settings: PC-12, 24 h, read-out: Activity
PC-12 [3] = assay: Reversal of H2O2-induced calcium overload in rat PC12 cells assessed as mean fluorescence intensity at 5 uM after 48 hrs by Fluo-3/AM probe based flow cytometry (reference value: 454014); format: functional
Mus musculus [4] = assay: Acute toxicity in mouse assessed as abnormal changes in liver at 2000 mg/kg, po measured continuously for first 4 hrs and intermittently for next 24 hrs and occasionally for 14 days by hematoxylin and eosin staining based microscopic method; format: organism-based; settings: in vivo
Cholinesterase = Cholinesterase (Homo sapiens, UniProt P06276); assay: Inhibition of human serum BuChE at 100 uM using butyrylthiocholine iodide as substrate incubated for 5 mins followed by substrate addition measured after 180 secs by Ellman's method relative to control
PC-12 [5] = assay: Reversal of H2O2-induced calcium overload in rat PC12 cells assessed as mean fluorescence intensity at 2.5 uM after 48 hrs by Fluo-3/AM probe based flow cytometry (reference value: 454014); format: functional
[6] = molecular target: Amyloid-beta precursor protein (Homo sapiens) (UniProt P05067); assay: Inhibition of AChE-induced amyloid beta 40 (unknown origin) aggregation at 100 uM by thioflavin-T fluorescence assay relative to control
[7] = Half life in Sprague-Dawley rat liver microsomes in presence of NADPH by UPLC/MS analysis; settings: liver microsomes
[8] = Effective permeability of the compound at […] after 16 hrs by PAMPA-BBB assay; format: ADME; settings: read-out: Peff
PC-12 [9] = assay: Neuroprotective activity against H2O2-induced apoptosis in rat PC12 cells assessed as late apoptotic cells at 10 uM after 24 hrs by Annexin V-FITC/propidium iodide staining-based flow cytometry (reference value: 25.3%); format: functional
BV-2 [10] = assay: Antineuroinflammatory activity in mouse BV2 cells assessed as inhibition of LPS-induced NO production at 10 to 30 uM after 24 hrs by Griess assay; format: functional, cell-based
Mus musculus [11] = assay: Acute toxicity in mouse assessed as abnormal changes in lung at 2000 mg/kg, po measured continuously for first 4 hrs and intermittently for next 24 hrs and occasionally for 14 days by hematoxylin and eosin staining based microscopic method; format: organism-based; settings: in vivo
Acetylcholinesterase [12] = molecular target: T1, Acetylcholinesterase (Homo sapiens, UniProt P22303); assay: Mixed-type inhibition of human AChE using acetylthiocholine chloride as substrate incubated for 5 mins followed by substrate addition by Lineweaver-Burk plot analysis
BV-2 [13] = assay: Inhibition of LPS-induced intracellular ROS production in mouse BV2 cells assessed as mean fluorescence intensity at 10 uM incubated with LPS for 18 hrs followed by compound addition measured after 36 hrs by DCFH-DA probe based flow cytometry (reference value: 493530); format: functional
Mus musculus [14] = assay: Acute toxicity in mouse assessed as mortality at 677 to 2000 mg/kg, po measured continuously for first 4 hrs and intermittently for next 24 hrs and occasionally for 14 days; format: organism-based; settings: in vivo
PC-12 [15] = assay: Neuroprotective activity against H2O2-induced apoptosis in rat PC12 cells assessed as early apoptotic cells at 5 uM after 24 hrs by Annexin V-FITC/propidium iodide staining-based flow cytometry (reference value: 1.4%); format: functional
PC-12 [16] = assay: Neuroprotective activity against H2O2-induced apoptosis in rat PC12 cells assessed as early apoptotic cells at 2.5 uM after 24 hrs by Annexin V-FITC/propidium iodide staining-based flow cytometry (reference value: 1.4%); format: functional
[17] = molecular target: Amyloid-beta precursor protein (Homo sapiens) (UniProt P05067); assay: Inhibition of self-induced amyloid beta 42 (unknown origin) aggregation at 20 uM incubated for 46 to 48 hrs by thioflavin-T fluorescence assay relative to control
Acetylcholinesterase [18] = molecular target: T1, Acetylcholinesterase; assay: Inhibition of human erythrocyte AChE using acetylthiocholine chloride as substrate incubated for 5 mins followed by substrate addition measured after 180 secs by Ellman's method
Mus musculus [19] = assay: Toxicity in ICR mouse assessed as change in body weight at 5 to 10 mg/kg, po administered for 10 consecutive days; format: organism-based; settings: in vivo
Mus musculus [20] = assay: Acute toxicity in mouse assessed as abnormal changes in kidney at 2000 mg/kg, po measured continuously for first 4 hrs and intermittently for next 24 hrs and occasionally for 14 days by hematoxylin and eosin staining based microscopic method; format: organism-based; settings: in vivo
Homo sapiens = organism: Homo sapiens; assay: Selectivity index, ratio of IC50 for human serum BuChE to IC50 for human erythrocyte AChE
Mus musculus [21] = assay: Acute toxicity in mouse assessed as body weight change at 677 to 2000 mg/kg, po measured continuously for first 4 hrs and intermittently for next 24 hrs and occasionally for 14 days; format: organism-based; settings: in vivo
Mus musculus [22] = assay: Acute toxicity in mouse assessed as abnormal changes in water or food consumption at 677 to 2000 mg/kg, po measured continuously for first 4 hrs and intermittently for next 24 hrs and occasionally for 14 days; format: organism-based; settings: in vivo
Mus musculus [23] = assay: Toxicity in ICR mouse assessed as diarrhea at 5 to 10 mg/kg, po administered for 10 consecutive days; format: organism-based; settings: in vivo
PC-12 [24] = assay: Neuroprotective activity against H2O2-induced apoptosis in rat PC12 cells assessed as necrotic cells at 5 uM after 24 hrs by Annexin V-FITC/propidium iodide staining-based flow cytometry (reference value: 4.9%); format: functional
[25] = molecular target: T2, Amine oxidase [flavin-containing] B (Homo sapiens, UniProt P27338); assay: Inhibition of human MAO-B using p-tyramine as substrate incubated for 15 mins followed by substrate addition measured for 20 mins by fluorescence assay
T2 sequence (P27338 whole entry): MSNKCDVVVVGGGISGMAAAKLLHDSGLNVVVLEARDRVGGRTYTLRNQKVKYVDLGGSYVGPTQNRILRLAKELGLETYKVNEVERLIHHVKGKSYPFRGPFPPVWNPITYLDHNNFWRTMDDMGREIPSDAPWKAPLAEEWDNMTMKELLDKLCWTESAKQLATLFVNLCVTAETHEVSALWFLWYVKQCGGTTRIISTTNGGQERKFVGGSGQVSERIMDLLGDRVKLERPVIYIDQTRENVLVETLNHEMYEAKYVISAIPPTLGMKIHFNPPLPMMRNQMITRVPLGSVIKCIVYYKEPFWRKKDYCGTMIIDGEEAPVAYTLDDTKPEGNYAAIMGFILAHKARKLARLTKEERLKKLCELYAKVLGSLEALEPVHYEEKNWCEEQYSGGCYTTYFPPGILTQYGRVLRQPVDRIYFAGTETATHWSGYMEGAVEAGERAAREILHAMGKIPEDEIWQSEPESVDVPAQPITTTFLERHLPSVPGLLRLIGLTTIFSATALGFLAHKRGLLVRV

Mus musculus [26] = assay: Acute toxicity in mouse assessed as abnormal changes in heart at 2000 mg/kg, po measured continuously for first 4 hrs and intermittently for next 24 hrs and occasionally for 14 days by hematoxylin and eosin staining based microscopic method; format: organism-based; settings: in vivo
Mus musculus [27] = assay: Toxicity in ICR mouse assessed as emesis at 5 to 10 mg/kg, po administered for 10 consecutive days; format: organism-based; settings: in vivo

T1 sequence (P22303 whole entry): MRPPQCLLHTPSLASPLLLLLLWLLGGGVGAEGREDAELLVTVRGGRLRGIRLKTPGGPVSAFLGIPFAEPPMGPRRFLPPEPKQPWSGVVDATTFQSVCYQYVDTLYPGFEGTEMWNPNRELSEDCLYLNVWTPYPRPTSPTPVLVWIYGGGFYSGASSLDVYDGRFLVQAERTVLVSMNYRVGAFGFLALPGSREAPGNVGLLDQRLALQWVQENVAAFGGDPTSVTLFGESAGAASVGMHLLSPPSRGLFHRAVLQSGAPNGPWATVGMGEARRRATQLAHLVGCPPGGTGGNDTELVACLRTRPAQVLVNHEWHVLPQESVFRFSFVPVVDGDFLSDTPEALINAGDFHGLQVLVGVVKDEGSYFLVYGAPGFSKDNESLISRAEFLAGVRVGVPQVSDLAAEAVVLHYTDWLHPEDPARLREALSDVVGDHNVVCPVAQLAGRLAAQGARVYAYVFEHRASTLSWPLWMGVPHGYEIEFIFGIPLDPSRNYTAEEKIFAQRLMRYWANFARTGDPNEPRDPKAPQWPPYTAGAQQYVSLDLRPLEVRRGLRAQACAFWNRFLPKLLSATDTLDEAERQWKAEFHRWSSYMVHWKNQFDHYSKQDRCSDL
Chain of Amyloid-beta precursor protein (Homo sapiens) (P05067 whole entry): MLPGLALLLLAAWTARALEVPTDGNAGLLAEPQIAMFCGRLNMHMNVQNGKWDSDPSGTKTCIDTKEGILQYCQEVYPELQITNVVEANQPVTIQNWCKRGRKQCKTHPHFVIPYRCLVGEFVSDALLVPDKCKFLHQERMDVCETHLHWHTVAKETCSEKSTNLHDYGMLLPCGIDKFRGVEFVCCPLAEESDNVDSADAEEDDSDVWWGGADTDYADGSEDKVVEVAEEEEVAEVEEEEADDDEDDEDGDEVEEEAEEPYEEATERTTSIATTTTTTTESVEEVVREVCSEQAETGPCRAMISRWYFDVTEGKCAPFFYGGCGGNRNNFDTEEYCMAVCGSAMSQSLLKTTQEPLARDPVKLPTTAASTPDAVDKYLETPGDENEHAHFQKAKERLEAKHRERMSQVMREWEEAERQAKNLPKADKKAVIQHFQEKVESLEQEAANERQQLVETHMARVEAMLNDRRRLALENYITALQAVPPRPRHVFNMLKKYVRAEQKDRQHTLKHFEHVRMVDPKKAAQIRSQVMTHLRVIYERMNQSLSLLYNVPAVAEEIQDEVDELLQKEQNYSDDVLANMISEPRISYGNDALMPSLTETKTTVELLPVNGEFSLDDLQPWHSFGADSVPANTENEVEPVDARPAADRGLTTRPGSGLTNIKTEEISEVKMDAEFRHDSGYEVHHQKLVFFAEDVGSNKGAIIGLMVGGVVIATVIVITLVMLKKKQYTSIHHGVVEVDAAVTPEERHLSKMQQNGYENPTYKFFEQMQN
Chain of Cholinesterase (P06276 whole entry): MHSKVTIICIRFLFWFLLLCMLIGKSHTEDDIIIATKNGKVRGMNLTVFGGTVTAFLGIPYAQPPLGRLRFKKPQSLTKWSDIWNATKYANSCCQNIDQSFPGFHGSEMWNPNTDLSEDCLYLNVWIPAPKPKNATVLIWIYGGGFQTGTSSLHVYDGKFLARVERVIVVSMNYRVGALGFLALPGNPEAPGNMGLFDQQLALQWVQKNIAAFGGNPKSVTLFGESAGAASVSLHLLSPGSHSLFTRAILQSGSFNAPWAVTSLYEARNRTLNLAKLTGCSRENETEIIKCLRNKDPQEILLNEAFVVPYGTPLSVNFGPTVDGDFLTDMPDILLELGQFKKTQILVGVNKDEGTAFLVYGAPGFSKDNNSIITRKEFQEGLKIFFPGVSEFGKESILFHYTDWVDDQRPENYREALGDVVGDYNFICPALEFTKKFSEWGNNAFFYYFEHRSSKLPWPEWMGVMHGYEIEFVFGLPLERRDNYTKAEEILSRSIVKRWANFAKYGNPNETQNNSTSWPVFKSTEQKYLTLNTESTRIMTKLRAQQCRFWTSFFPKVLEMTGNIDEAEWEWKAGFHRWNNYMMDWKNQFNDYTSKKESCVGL

CC(C)(C)c1cc(/C=C/C(=O)NCCC2CCN(Cc3ccccc3F)CC2)cc(C(C)(C)C)c1O
Flu intensity (BV-2 [1]): 310450
viability at 5 µM (PC-12 [2]): 88.3%
Flu intensity (PC-12 [3]): 251576
Activity (Mus musculus [4]): Non-Toxic
inhibition (Cholinesterase): 38.4%
Flu intensity (PC-12 [5]): 347633
inhibition [6]: 40.1%
half-life [7]: 1.49 h
Papp at 16 h [8]: 5.5 ×10⁻⁶ cm/s
Activity (PC-12 [9]): 5.7%
inhibition (BV-2 [10]): Active
Activity (Mus musculus [11]): Non-Toxic
Ki (Acetylcholinesterase [12]): 1400 nM
Flu intensity (BV-2 [13]): 390948
Activity (Mus musculus [14]): Non-Toxic
Activity (PC-12 [15]): 0.3%
Activity (PC-12 [16]): 0.2%
inhibition [17]: 43.5 to 56.7%
IC50 (Acetylcholinesterase [18]): 750 nM
Activity (Mus musculus [19]): Non-Toxic
Activity (Mus musculus [20]): Non-Toxic
Ratio IC50 (Homo sapiens): > 133
Activity (Mus musculus [21]): Non-Toxic
Activity (Mus musculus [22]): Non-Toxic
Activity (Mus musculus [23]): Non-Toxic
Activity (PC-12 [24]): 2.5%
IC50 [25]: 7400 nM
Activity (Mus musculus [26]): Non-Toxic
Activity (Mus musculus [27]): Non-Toxic

— ChEMBL document CHEMBL4270597, “Donepezil-butylated hydroxytoluene (BHT) hybrids as Anti-Alzheimer's disease agents with cholinergic, antioxidant, and neuroprotective properties” (Eur J Med Chem, 2018)
